Results on eleven compounds are retold here after ChEMBL document CHEMBL1201862, “PubChem BioAssay data set” (2004).

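Five concentrations, 48 hours, 96-well plates. GI50 = concentration required for 50% inhibition of growth.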 Calls of active or inactive are those of the source. Rule as the data show it: active = GI50 up to about 1.1 µM and inactive = higher. Non-standard residues stand in square brackets, D forms with d. Residues, ends and D or L forms follow the SMILES beside them. β3hI = CC[CH](C)[CH](N)CC(=O)O Bounds are passed on as bounds.

Some test systems named below: 786-0; ACHN; BT-549; EKVX; HCT-15; HT-29; Hs-578T; IGROV-1; LOX IMVI; MDA-MB-435; NCI-H522; PC-3; SF-268; SK-MEL-5; T47D; UACC-257; UACC-62; UO-31; K562; NCI-H460.
What all share (assay): NCI-60 cell line screen, 48 h

In the case of `CCC(C)C(CC(=O)N1CCCC1C(=O)NC(C(=O)NC(C(=O)NCC(=O)NC(CC(N)=O)C(=O)NC(C(=O)NC(C(=O)NC(CCCCN)C(N)=O)C(C)CC)C(C)CC)C(C)C)C(C)CC)NC(=O)C(N)C(C)CC` (stereo not drawn) (H-I[β3hI]PIVGNIIK-NH2; configuration not given here), the GI50 is > 50 µM (inactive) in the experiment with 786-0; > 50 µM (inactive) with ACHN; > 50 µM (inactive) in the experiment on BT-549; > 50 µM (inactive) with EKVX; over 50 µM in the experiment with HCT-15; > 50 µM (inactive) with HT-29. The GI50 with Hs-578T, in the experiment on IGROV-1, with LOX IMVI, in the experiment with MDA-MB-435, in the experiment on NCI-H522 and in the experiment on PC-3 was > 50 µM (inactive) each time. Besides, the GI50 in the experiment with SF-268, with SK-MEL-5, in the experiment on T47D, in the experiment on UACC-257, with UACC-62 and in the experiment with UO-31 was > 50 µM (inactive) each time.

For the compound `O=C(c1ccccc1)n1cc(-c2ccccc2)c2c(=O)nc[nH]c21`, the GI50 with 786-0 was > 100 µM (inactive); in the experiment with ACHN it was > 100 µM (inactive); in the experiment on BT-549, > 100 µM (inactive); with EKVX, > 100 µM (inactive); in the experiment on HCT-15 it was over 100 µM; with HT-29 it was > 100 µM (inactive). Also, the GI50 in the experiment on Hs-578T, in the experiment on IGROV-1, in the experiment with LOX IMVI, with MDA-MB-435, in the experiment on NCI-H522 and in the experiment on PC-3 was > 100 µM (inactive) each time. The GI50 in the experiment on SF-268, in the experiment with SK-MEL-5, with T47D, in the experiment with UACC-257, with UACC-62 and in the experiment on UO-31 was > 100 µM (inactive) throughout.

Take `Cc1ccc(O)c(-c2cc(-c3cccc(Br)c3)on2)c1`: the GI50 was 40.4 µM (inactive) in the experiment with 786-0; 35.6 µM (inactive) in the experiment on ACHN; 27.7 µM (inactive) with BT-549; 34.4 µM (inactive) in the experiment with EKVX; 31.4 µM in the experiment with HCT-15; 25.5 µM (inactive) with HT-29. Moreover, the GI50 in the experiment with Hs-578T was 44.6 µM (inactive); in the experiment on IGROV-1 it was 14.5 µM (inactive); with K562 it was 29.6 µM (inactive); in the experiment on LOX IMVI it was 16.3 µM (inactive); in the experiment on MDA-MB-435, 21.7 µM (inactive); in the experiment with NCI-H460, 29.1 µM (inactive). Also, the GI50 in the experiment with PC-3 was 45.6 µM (inactive); with SF-268, 24.2 µM (inactive); with SK-MEL-5, 18.1 µM (inactive); in the experiment on T47D, 28.2 µM (inactive); in the experiment on UACC-257, 48.8 µM (inactive); with UACC-62, 28.6 µM (inactive). For the same compound, the GI50 in the experiment on UO-31 is 70.3 µM (inactive).

As for `COc1nc2ccc(CNc3ccc(C(=O)O)cc3)cc2nc1OC`, the GI50 with 786-0 was > 10 µM (inactive); in the experiment on ACHN, > 10 µM (inactive); in the experiment with BT-549, > 10 µM (inactive); with EKVX, > 10 µM (inactive); in the experiment on HCT-15, over 10 µM; in the experiment on HT-29, > 10 µM (inactive). Further, the GI50 with Hs-578T, with IGROV-1, in the experiment on K562, in the experiment with LOX IMVI, in the experiment with MDA-MB-435 and in the experiment with NCI-H460 was > 10 µM (inactive) each time. The GI50 in the experiment on NCI-H522, in the experiment on PC-3, in the experiment with SF-268, with SK-MEL-5, with T47D and with UACC-257 was > 10 µM (inactive) each time. In addition, the GI50 with UACC-62 was > 10 µM (inactive).

As for `[N-]=[N+]=Nc1c(Cl)c(=O)n(-c2ccccc2)c2ccccc12`, the GI50 with 786-0 was 18.3 µM (inactive); in the experiment on ACHN it was 21.5 µM (inactive); with BT-549 it was 19.9 µM (inactive); in the experiment on HCT-15, 20.7 µM; in the experiment on HT-29 it was 23.2 µM (inactive); in the experiment with Hs-578T it was 25.3 µM (inactive). For the same compound, the GI50 in the experiment with IGROV-1 is 15.6 µM (inactive); in the experiment on K562, 14.8 µM (inactive); in the experiment with LOX IMVI, 14.9 µM (inactive); with MDA-MB-435, 19.1 µM (inactive); in the experiment with NCI-H460, 34.8 µM (inactive); in the experiment with PC-3, 18.7 µM (inactive). In addition, the GI50 is 19.8 µM (inactive) in the experiment on SF-268; 3.15 µM (inactive) in the experiment with SK-MEL-5; 11.8 µM (inactive) in the experiment on T47D; 24.2 µM (inactive) in the experiment on UACC-257; 15.1 µM (inactive) with UACC-62; 23.9 µM (inactive) in the experiment with UO-31.

In the case of `O=c1oc2c(Br)c(O)c(Br)cc2c2ccccc12`, the GI50 in the experiment with 786-0 was 42.1 µM (inactive); in the experiment on ACHN, 30.8 µM (inactive); with BT-549, 29 µM (inactive); in the experiment with EKVX it was 23.2 µM (inactive); in the experiment on HCT-15, 19.2 µM; in the experiment with HT-29 it was 30 µM (inactive). Also, the GI50 was 20.7 µM (inactive) with Hs-578T; 30.6 µM (inactive) with IGROV-1; 23.1 µM (inactive) with K562; 23.8 µM (inactive) in the experiment on LOX IMVI; 36.6 µM (inactive) in the experiment on MDA-MB-435; 24 µM (inactive) in the experiment with NCI-H460. Also, the GI50 with NCI-H522 is 15.8 µM (inactive); in the experiment on PC-3, 21 µM (inactive); in the experiment on SF-268 it was 20.8 µM (inactive); with SK-MEL-5, 24.5 µM (inactive); with T47D, 25 µM (inactive); with UACC-257 it was 18 µM (inactive). The GI50 with UACC-62 is 20.1 µM (inactive).

`COc1ccc(OC)c2sc(N3C(=O)/C(=C/c4ccccc4S)N=C3c3ccccc3)nc12`: the GI50 is 59.2 µM (inactive) in the experiment with 786-0; 34.8 µM (inactive) with ACHN; 45.9 µM (inactive) in the experiment with BT-549; 32.1 µM (inactive) in the experiment with EKVX; 34.1 µM in the experiment on HCT-15; 38.9 µM (inactive) in the experiment with HT-29. For the same compound, the GI50 was 49.7 µM (inactive) with Hs-578T; 90.4 µM (inactive) in the experiment with IGROV-1; 26 µM (inactive) in the experiment with K562; 24.9 µM (inactive) in the experiment on LOX IMVI; 17.6 µM (inactive) in the experiment with MDA-MB-435; 53.8 µM (inactive) in the experiment with NCI-H460. For the same compound, the GI50 is 19.7 µM (inactive) with PC-3; 59.7 µM (inactive) in the experiment on SF-268; 18.4 µM (inactive) in the experiment with SK-MEL-5; 24.2 µM (inactive) in the experiment on T47D; 63 µM (inactive) in the experiment with UACC-257; 21.5 µM (inactive) in the experiment with UACC-62. In addition, in the experiment on UO-31, the GI50 is 28.1 µM (inactive).

Take `O=[N+]([O-])c1ccc(/N=N/c2c(O)ccc3cc(S(=O)(=O)O)cc(S(=O)(=O)O)c23)cc1`: the GI50 in the experiment with 786-0 was > 100 µM (inactive); with ACHN, > 100 µM (inactive); with BT-549, > 100 µM (inactive); in the experiment with EKVX, > 100 µM (inactive); with HCT-15, over 100 µM; in the experiment with HT-29, > 100 µM (inactive). Further, the GI50 with Hs-578T, in the experiment with IGROV-1, in the experiment with K562, in the experiment with LOX IMVI, with MDA-MB-435 and with NCI-H522 was > 100 µM (inactive) each time. The GI50 in the experiment on PC-3, with SF-268, with SK-MEL-5, with T47D, with UACC-257 and with UACC-62 was > 100 µM (inactive) in each case. Moreover, the GI50 in the experiment with UO-31 was > 100 µM (inactive).

As for `NCCCNc1ccc2c3c(nn2CCNCCO)-c2c(O)ccc(O)c2C(=O)c13`, the GI50 in the experiment on 786-0 is 2.38 µM (inactive); with ACHN it was 0.989 µM (active); in the experiment with BT-549 it was 0.695 µM (active); in the experiment with HCT-15, 5.01 µM; in the experiment on HT-29, 3.68 µM (inactive); in the experiment with Hs-578T it was 0.787 µM (active). Also, the GI50 in the experiment with IGROV-1 is 2.46 µM (inactive); in the experiment on LOX IMVI it was 0.927 µM (active); in the experiment with MDA-MB-435 it was 9.71 µM (inactive); in the experiment with NCI-H522, 1.18 µM (inactive); with PC-3, 2.84 µM (inactive); in the experiment on SF-268 it was 1.35 µM (inactive). Also, the GI50 in the experiment on SK-MEL-5 is 0.925 µM (active); in the experiment on T47D, 2.18 µM (inactive); with UACC-257 it was 5.81 µM (inactive); in the experiment on UACC-62, 0.883 µM (active).

Consider `CCC1(c2ccccc2)C(=O)N=C(c2ccccc2)N1CCc1ccccc1` (stereo not drawn), for which the GI50 in the experiment with 786-0 is > 100 µM (inactive); with ACHN it was > 100 µM (inactive); in the experiment with BT-549, > 100 µM (inactive); with EKVX it was > 100 µM (inactive); with HCT-15, over 100 µM; in the experiment with HT-29 it was > 100 µM (inactive). Further, the GI50 in the experiment with Hs-578T, with IGROV-1, in the experiment with K562, with LOX IMVI, in the experiment on MDA-MB-435 and in the experiment on NCI-H522 was > 100 µM (inactive) each time. The GI50 in the experiment with PC-3, with SF-268, with SK-MEL-5, in the experiment on T47D, in the experiment on UACC-257 and in the experiment on UACC-62 was > 100 µM (inactive) throughout. For the same compound, the GI50 in the experiment on UO-31 was > 100 µM (inactive).

As to `Oc1c(Br)cc(Br)cc1CN(Cc1cc(Br)cc(Br)c1O)C1CCCCC1`, the GI50 with 786-0 is 41.1 µM (inactive); in the experiment with ACHN, 31.1 µM (inactive); in the experiment with BT-549 it was 33.1 µM (inactive); in the experiment with EKVX, 30.5 µM (inactive); in the experiment with HCT-15 it was 31.9 µM; in the experiment on HT-29 it was 23.7 µM (inactive). Also, the GI50 in the experiment on Hs-578T was 17.2 µM (inactive); with IGROV-1, 34.1 µM (inactive); in the experiment on K562 it was 31.6 µM (inactive); with LOX IMVI, 31.9 µM (inactive); in the experiment with MDA-MB-435, 31.3 µM (inactive); in the experiment with NCI-H522, 15.3 µM (inactive). Further, the GI50 is 21.1 µM (inactive) in the experiment with PC-3; 22 µM (inactive) with SF-268; 16.9 µM (inactive) in the experiment with SK-MEL-5; 32.4 µM (inactive) in the experiment with T47D; 19.5 µM (inactive) in the experiment with UACC-257; 31.3 µM (inactive) with UACC-62. Besides, the GI50 with UO-31 was 31.7 µM (inactive).
